Like-named read-outs stand apart in the source and are kept apart here.
Legend:
[1] = cited from earlier work
[2] = cited from earlier work; remark: listed apart in the source
[3] = system: wheat powdery mildew (Erysiphe graminis); test: Control of wheat powdery mildew by formulated culture broths; assay type: in vivo; details: 14 days
Method: B.subtilis NCIB 12376 was grown in a yeast peptone-glucose broth at 30° C. in an orbital shaker for 72 hours. The formulants listed in Table 9 were added to samples of culture broths at the concentrations given in Table 9 and stirred until dispersed or dissolved. The formulated broths were tested for control of wheat powdery mildew (Erysiphe graminis) by spraying to run-off wheat plants (cv. Aquila) at the two leaf stage (Zadocks GS 12) prior to inoculation with an aqueous suspension of E. graminis conidia. For each formulation 20 replicate pots of plants were sprayed. Ten pots from each treatment were then thoroughly drenched with a mist bench for 4 minutes, one hour after spraying. All pots were incubated in a glasshouse for 14 days before assessment of disease levels (Table 9).

Compound: Mycobacillin
- Solubility in acetone ([1]; literature): soluble
- Solubility in water ([1]; pH values of 7 and below, refs. 20 and 22): insoluble

Compound: Mycosubtilin
- Solubility in butanol ([1]; literature): insoluble
- Solubility in ethanol ([1]; literature): insoluble
- Solubility in methanol ([1]; methanol, literature): insoluble

Compound: Iturin A
- Thermostability ([2]; pH 3, 14 and 23): thermostable
- Thermostability ([2]; pH 10, 14 and 23): thermostable

Compound: Fungistatin
- Behaviour on contact with water ([1]; water): forms an inactive gel when contacted with water

Compound: Rhizoctonia factor
- Solubility in butanol ([1]; literature): insoluble
- Solubility in ethanol ([1]; literature): insoluble
- Thermostability ([2]; pH 2 only, refs. 5 and 9): thermostable only at pH 2

Compound: CC(C)(C)C(=O)C(Oc1ccc(Cl)cc1)n1cncn1 (centres unmarked) [Triadimefon]
- Disease Level (% leaf area infected) ([3]; drenched 4 minutes, one hour after spraying, no treatment 5.6): 0.1%
- Disease Level (% leaf area infected) ([3]; undrenched, no treatment 2.0): 0.2%

Compound: Chaetomacin
- Solubility in acetone ([1]; literature): soluble

Compound: Bacillomycin L
- Partition into butanol ([1]; neutral pH): does not partition into butanol
- Thermostability ([2]; pH 3, 14 and 23): thermostable
- Thermostability ([2]; pH 10, 14 and 23): thermostable

From patent US5061495A, “Antibiotic derived from B. subtilis” (Agricultural Genetics Company Limited, priority 1988, dated 1991)
